Values of other authors as cited in US20140090255A1, “Skin Engaging Member Comprising At Least One Thermally Resilient Sensate” (The Gillette Company, priority 2012, published 2014).

Conditions: concentration where the cooling effect could be clearly recognized; Emberger and Hopp 1987

Question: With CC(C)[C@@H]1CC[C@@H](C)C[C@@H]1O [Example 1-neomenthol, 1-neomenthol] as the compound, how does the cooling threshold read?
Answer: Its cooling threshold is “about 3,000 ppb”.

Question: Which cooling threshold does the source give for CC(C)[C@@H]1CC[C@@H](C)C[C@H]1O [L-menthol] here?
Answer: The cooling threshold was “about 800 ppb”.

Question: Which cooling threshold does the source give for CC(C)[C@@H]1CC[C@@H](C)C[C@@H]1O [d-neomenthol] here?
Answer: The cooling threshold was “about 25,000 ppb”.
